The values below come from ChEMBL document CHEMBL4346758 (2019).

The term CC50 denotes the concentration giving 50% cytotoxicity. As usually defined, the IC50 is the concentration that gives 50% inhibition. As a reminder, the Kd is the equilibrium constant for the complex coming apart. Low values mean tighter binding, high ones weaker binding.

Data set [1] is described as follows: Cytotoxicity against human A549 cells assessed as reduction in cell viability by MTT assay. It counts as cell-based.
The subject of data set [2] is Influenza A virus. Nature of the data set: microbe, parasite or virus in culture. The settings on record: A/Puerto Rico/8/1934(H1N1), A549.
Data set [3] deals with Influenza A virus (A/Thailand/Kan353/2004(H5N1)). Nature of the data set: Inhibition of Influenza A virus (A/Thailand/Kan353/2004(H5N1)) neuraminidase N1 using fluorogenic 2'-(4-Methylumbelliferyl)-alpha-D-N-acetylneuraminic acid sodium salt hydrate as substrate measured after 30 mins by microplate reader analysis.
The test system of data set [4] is H5N1 subtype. Type of data set: functional, organism-based. The settings on record: 5 uM.
For data set [5], the system named is Influenza A virus. It counts as functional, organism-based. The conditions noted are these: H5N1.
Data set [6] relates to H5N1 subtype. Briefly: Antiviral activity against Influenza A virus (A/Thailand/Kan353/2004(H5N1)) infected in MDCK cells assessed as inhibition of viral entry. It counts as functional, organism-based.
Data set [7] relates to Vesicular stomatitis virus. Briefly: Antiviral activity against VSV-G enveloped pseudovirus infected in MDCK cells assessed as inhibition of viral entry. Type of data set: functional, organism-based.
Another data set concerns MDCK. Nature of the data set: Cytotoxicity against MDCK cells assessed as cell viability. Type of data set: cell-based, Canis lupus familiaris. The conditions noted are these: dog.
Data set [8] concerns Influenza A virus. Briefly: Inhibition of hemagglutinin 5 in Influenza A virus assessed as inhibition of chicken erythrocytes aggregation.
The nature of data set [9]: Binding affinity to HA2 subunit by SPR assay. The arrangement: species or system Influenza A virus. For orientation: Surface plasmon resonance follows binding to a sensor surface in real time, without labels.
For a further data set, the target named is Hemagglutinin (Influenza A virus, UniProt B4URE7). Briefly: Binding affinity to hemagglutinin by SPR assay.

Calls of active or inactive are those of the source. The calls are words filed in the database; no cut-off is given here.

Sequence of Hemagglutinin (B4URE7 whole entry): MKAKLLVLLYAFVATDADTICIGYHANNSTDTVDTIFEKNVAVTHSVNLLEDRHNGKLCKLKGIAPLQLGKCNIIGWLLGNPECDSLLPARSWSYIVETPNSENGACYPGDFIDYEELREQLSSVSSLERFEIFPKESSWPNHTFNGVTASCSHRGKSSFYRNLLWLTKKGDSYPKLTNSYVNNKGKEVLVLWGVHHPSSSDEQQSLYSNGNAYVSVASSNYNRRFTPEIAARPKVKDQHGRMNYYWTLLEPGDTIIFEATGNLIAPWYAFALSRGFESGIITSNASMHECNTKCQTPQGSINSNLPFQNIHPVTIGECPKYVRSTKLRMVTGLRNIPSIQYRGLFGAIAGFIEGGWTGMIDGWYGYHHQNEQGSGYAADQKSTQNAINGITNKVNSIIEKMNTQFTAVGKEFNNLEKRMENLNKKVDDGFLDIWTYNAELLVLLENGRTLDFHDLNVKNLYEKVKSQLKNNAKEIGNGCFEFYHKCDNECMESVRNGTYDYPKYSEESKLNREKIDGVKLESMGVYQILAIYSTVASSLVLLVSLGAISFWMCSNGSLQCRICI

As to `CCOC(=O)C1=C[C@@H](OC(CC)CC)[C@H](NC(C)=O)[C@@H](N)C1` [OSELTAMIVIR], the CC50 in data set [1] is over 200 µM. Besides, in the data set with Influenza A virus [2], the IC50 is 4.61 µM.

Take `C[C@H]1[C@H](C)CC[C@]2(C(=O)O)CC[C@]3(C)C(=CC[C@@H]4[C@@]5(C)CC[C@H](O[C@@H]6O[C@H](CO)[C@@H](O[C@@H]7O[C@@H](C)[C@H](O)[C@@H](O)[C@H]7O)[C@H](O)[C@H]6O[C@@H]6O[C@@H](C)[C@H](O)[C@@H](O)[C@H]6O)C(C)(C)[C@@H]5CC[C@]43C)[C@H]12`: in [1], the CC50 worked out at 66.6 µM. The molecule further yielded a concentration for half-maximal inhibition (IC50) with Influenza A virus [2] of 38.1 µM.

In the case of `C[C@H]1[C@H](C)CC[C@]2(C(=O)NCCN3CCCCC3)CC[C@]3(C)C(=CC[C@@H]4[C@@]5(C)CC[C@H](O[C@@H]6O[C@H](CO)[C@@H](O[C@@H]7O[C@@H](C)[C@H](O)[C@@H](O)[C@H]7O)[C@H](O)[C@H]6O[C@@H]6O[C@@H](C)[C@H](O)[C@@H](O)[C@H]6O)C(C)(C)[C@@H]5CC[C@]43C)[C@H]12`, the CC50 in data set [1] is over 200 µM. Moreover, in [3], the inhibition entry is “inactive”. The same molecule returned an IC50 with Influenza A virus [2] of 21.3 µM.

On to `C[C@H]1[C@H](C)CC[C@]2(C(=O)NCCN3CCOCC3)CC[C@]3(C)C(=CC[C@@H]4[C@@]5(C)CC[C@H](O[C@@H]6O[C@H](CO)[C@@H](O[C@@H]7O[C@@H](C)[C@H](O)[C@@H](O)[C@H]7O)[C@H](O)[C@H]6O[C@@H]6O[C@@H](C)[C@H](O)[C@@H](O)[C@H]6O)C(C)(C)[C@@H]5CC[C@]43C)[C@H]12`, for which, in data set [1], the CC50 was over 200 µM. In addition, the inhibition entry in the data set with H5N1 subtype [4] is “Active”. The inhibition result in the data set on Influenza A virus [5] is “Dose-dependent effect”. Further, the IC50 stood at 3.88 µM in the data set on H5N1 subtype [6] and 18.2 µM in the data set with Influenza A virus [2]. In addition, the inhibition entry (in data set [7]; in [3]; in the data set on Influenza A virus [8]) was “inactive” each time. The Activity entry with MDCK was “Non-Toxic”. Also, the Kd is 0.00017 µM in data set [9] and 0.0161 µM at Hemagglutinin.
